Measured values from ChEMBL document CHEMBL3885881, “DrugMatrix”.

Species: Rattus norvegicus
Test: DrugMatrix - Regimen: Daily Repeat
Assay type: toxicity, organism-based, Sprague-Dawley
Design: regimen Daily Repeat, gender Male, age 6-8 weeks
Settings: in vivo, po, route oral GAVAGE, dose level High, vehicle 100 % WATER; for BASOPHIL / EOSINOPHIL / ERYTHROCYTE COUNT / HEMATOCRIT / HEMOGLOBIN / LEUKOCYTE COUNT / LYMPHOCYTE / MEAN CORPUSCULAR HEMOGLOBIN / MEAN CORPUSCULAR HEMOGLOBIN CONCENTRATION / MEAN CORPUSCULAR VOLUME / MONOCYTE / NEUTROPHIL / PLATELET COUNT: tissue Blood
[1] = 54 mg/kg, 120 h, tissue Plasma, time 5 day
[2] = 80 mg/kg, 72 h, tissue Plasma, time 3 day
[3] = 80 mg/kg, 120 h, tissue Plasma, time 5 day

CCC1(c2ccccc2)C(=O)NC(=O)NC1=O [PHENOBARBITAL]
BLOOD UREA NITROGEN [1]: 18.33 mg/dL
CARBON DIOXIDE [1]: 32.67 mmol/L
CHLORIDE [1]: 100.67 MEQ/L
CHOLESTEROL [1]: 84 mg/dL
CREATINE PHOSPHOKINASE [1]: 245.33 u/L
CREATININE [1]: 0.16 mg/dL
GLUCOSE [1]: 134.67 mg/dL
LACTATE DEHYDROGENASE [1]: 129.33 u/L
LIPASE [1]: 9.67 u/L
PHOSPHORUS [1]: 10.53 mg/dL
POTASSIUM [1]: 6.17 MEQ/L
SODIUM [1]: 145.07 MEQ/L
TOTAL BILIRUBIN [1]: 0.2 mg/dL
TOTAL PROTEIN [1]: 6.4 G/DL
URIC ACID [1]: 0.8 mg/dL
BASOPHIL (80 mg/kg, 72 h, time 3 day): 0.45%
EOSINOPHIL (80 mg/kg, 72 h, time 3 day): 0.45%
ERYTHROCYTE COUNT (80 mg/kg, 72 h, time 3 day): 7.21 x10E6/uL
HEMATOCRIT (80 mg/kg, 72 h, time 3 day): 44%
HEMOGLOBIN (80 mg/kg, 72 h, time 3 day): 13.8 G/DL
LEUKOCYTE COUNT (80 mg/kg, 72 h, time 3 day): 13.79 x10E3/uL
LYMPHOCYTE (80 mg/kg, 72 h, time 3 day): 79.7%
MEAN CORPUSCULAR HEMOGLOBIN (80 mg/kg, 72 h, time 3 day): 19.15 pg
MEAN CORPUSCULAR HEMOGLOBIN CONCENTRATION (80 mg/kg, 72 h, time 3 day): 31.35 G/DL
MEAN CORPUSCULAR VOLUME (80 mg/kg, 72 h, time 3 day): 61.05 fL
MONOCYTE (80 mg/kg, 72 h, time 3 day): 2.35%
NEUTROPHIL (80 mg/kg, 72 h, time 3 day): 15.8%
PLATELET COUNT (80 mg/kg, 72 h, time 3 day): 1419.5 x10E3/uL
ALANINE AMINOTRANSFERASE [2]: 37.33 u/L
ALBUMIN [2]: 3.43 G/DL
ALKALINE PHOSPHATASE [2]: 281 u/L
ASPARTATE AMINOTRANSFERASE [2]: 57 u/L
BLOOD UREA NITROGEN [2]: 12.33 mg/dL
CHLORIDE [2]: 103 MEQ/L
CHOLESTEROL [2]: 84.33 mg/dL
CREATINE PHOSPHOKINASE [2]: 205.33 u/L
CREATININE [2]: 0.37 mg/dL
GLUCOSE [2]: 185 mg/dL
PHOSPHORUS [2]: 13.43 mg/dL
POTASSIUM [2]: 6.63 MEQ/L
SODIUM [2]: 147 MEQ/L
TOTAL BILIRUBIN [2]: 0.43 mg/dL
TOTAL PROTEIN [2]: 5.8 G/DL
BASOPHIL (80 mg/kg, 120 h, time 5 day): 0.43%
EOSINOPHIL (80 mg/kg, 120 h, time 5 day): 0.4%
ERYTHROCYTE COUNT (80 mg/kg, 120 h, time 5 day): 6.51 x10E6/uL
HEMATOCRIT (80 mg/kg, 120 h, time 5 day): 40.63%
HEMOGLOBIN (80 mg/kg, 120 h, time 5 day): 13.03 G/DL
LEUKOCYTE COUNT (80 mg/kg, 120 h, time 5 day): 13 x10E3/uL
LYMPHOCYTE (80 mg/kg, 120 h, time 5 day): 81.9%
MEAN CORPUSCULAR HEMOGLOBIN (80 mg/kg, 120 h, time 5 day): 20.1 pg
MEAN CORPUSCULAR HEMOGLOBIN CONCENTRATION (80 mg/kg, 120 h, time 5 day): 32.13 G/DL
MEAN CORPUSCULAR VOLUME (80 mg/kg, 120 h, time 5 day): 62.43 fL
MONOCYTE (80 mg/kg, 120 h, time 5 day): 2.6%
NEUTROPHIL (80 mg/kg, 120 h, time 5 day): 13.63%
PLATELET COUNT (80 mg/kg, 120 h, time 5 day): 1415.67 x10E3/uL
ALANINE AMINOTRANSFERASE [3]: 40.33 u/L
ALBUMIN [3]: 3.43 G/DL
ALKALINE PHOSPHATASE [3]: 257 u/L
ASPARTATE AMINOTRANSFERASE [3]: 54 u/L
BLOOD UREA NITROGEN [3]: 12 mg/dL
CHLORIDE [3]: 103.67 MEQ/L
CHOLESTEROL [3]: 104 mg/dL
CREATINE PHOSPHOKINASE [3]: 162.67 u/L
CREATININE [3]: 0.37 mg/dL
GLUCOSE [3]: 183.67 mg/dL
PHOSPHORUS [3]: 12.7 mg/dL
POTASSIUM [3]: 6.67 MEQ/L
SODIUM [3]: 145.67 MEQ/L
TOTAL BILIRUBIN [3]: 0.33 mg/dL
TOTAL PROTEIN [3]: 5.87 G/DL
